How the values were obtained:
Format in all cases: in vivo
[1] = test system: Echinochloa oryzacola Vasing.; experiment: Test Example 1: herbicidal activity, application before weed generation in submerged conditions; settings: Application herbicide amount 320 g/ha; Seventeenth Table
Outline: (§1)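 Rating, on a six-step scale from almost no effect (0) to almost completely withered (5), was made three weeks after pre-emergence treatment. Treatment was surface application to flooded pots at g/ha rates, with plants kept at 25° C. to 30° C.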

Monochoria vaginalis = experiment: as above; settings: Application herbicide amount 320 g/ha; Seventeenth Table
Outline: as §1

Scirpus juncoides = experiment: as above; settings: Application herbicide amount 320 g/ha; Seventeenth Table
Outline: as §1

[2] = test system: transplanted Oryza sativa; experiment: Test Example 1: effect on crop, application before weed generation in submerged conditions; settings: Application herbicide amount 320 g/ha; Seventeenth Table
Outline: as §1

[3] = test system: Beta vulgaris ssp. vulgaris; experiment: Test Example 4: effect on crop by application to foliage (diluvial soil, plastic box); settings: application to foliage, application herbicide amount 320 g/ha
Outline: (§2)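 Emulsion-formulated compound, diluted to a predetermined g/ha dose, applied by small sprayer to leaves and stems of 14-day-old seedlings grown in sterilized diluvial soil. Effect rated on 0–5 herbicidal-ratio scale three weeks on.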

Brassica campestris L. = experiment: as above; settings: application to foliage, application herbicide amount 320 g/ha
Outline: as §2

Glycine max = experiment: as above; settings: application to foliage, application herbicide amount 320 g/ha
Outline: as §2

Triticum aestivum = experiment: as above; settings: application to foliage, application herbicide amount 320 g/ha
Outline: as §2

Zea mays = experiment: as above; settings: application to foliage, application herbicide amount 320 g/ha
Outline: as §2

[4] = test system: directly sowed Oryza sativa; experiment: as above; settings: application to foliage, application herbicide amount 320 g/ha
Outline: as §2

Structure (SMILES)	A: Echinochloa oryzicola Vasing. (herbicidal effect grade) [1]	C: Monochoria vaginalis (herbicidal effect grade) (Monochoria vaginalis)	B: Scirpus juncoides (herbicidal effect grade) (Scirpus juncoides)	a: transplanted Oryza sativa (effect on crop grade) [2]	f (Beta vulgaris ssp. vulgaris) effect on crop [3]	g (Brassica campestris L.) effect on crop (Brassica campestris L.)	c (Glycine max) effect on crop (Glycine max)	e (Triticum aestivum) effect on crop (Triticum aestivum)	b (Zea mays) effect on crop (Zea mays)	d (directly sowed Oryza sativa) effect on crop [4]
CSCc1nnc2c(C(=O)Nc3nnc(C)o3)ccc(C(F)(F)F)n12 [1-030]	5 (Herbicidal ratio of 90% or more (almost completely withered))	3 (Herbicidal ratio of 40% or more and less than 70%)	3 (Herbicidal ratio of 40% or more and less than 70%)	0 (Herbicidal ratio of 5% or less (almost no effect))	5 (Herbicidal ratio of 90% or more (almost completely withered))	4 (Herbicidal ratio of 70% or more and less than 90%)	2 (Herbicidal ratio of 20% or more and less than 40%)	3 (Herbicidal ratio of 40% or more and less than 70%)	3 (Herbicidal ratio of 40% or more and less than 70%)	5 (Herbicidal ratio of 90% or more (almost completely withered))
Cc1nnc(NC(=O)c2ccc(C(F)(F)F)n3c(CSCC(F)(F)F)nnc23)o1 [1-031]	4 (Herbicidal ratio of 70% or more and less than 90%)	3 (Herbicidal ratio of 40% or more and less than 70%)	3 (Herbicidal ratio of 40% or more and less than 70%)	0 (Herbicidal ratio of 5% or less (almost no effect))	3 (Herbicidal ratio of 40% or more and less than 70%)	3 (Herbicidal ratio of 40% or more and less than 70%)	1 (Herbicidal ratio of 5% or more and less than 20%)	1 (Herbicidal ratio of 5% or more and less than 20%)	0 (Herbicidal ratio of 5% or less (almost no effect))	3 (Herbicidal ratio of 40% or more and less than 70%)
CCSc1nnc2c(C(=O)Nc3nnc(C)o3)ccc(C(F)(F)F)n12 [1-032]	5 (Herbicidal ratio of 90% or more (almost completely withered))	2 (Herbicidal ratio of 20% or more and less than 40%)	3 (Herbicidal ratio of 40% or more and less than 70%)	2 (Herbicidal ratio of 20% or more and less than 40%)	5 (Herbicidal ratio of 90% or more (almost completely withered))	4 (Herbicidal ratio of 70% or more and less than 90%)	0 (Herbicidal ratio of 5% or less (almost no effect))	1 (Herbicidal ratio of 5% or more and less than 20%)	0 (Herbicidal ratio of 5% or less (almost no effect))	4 (Herbicidal ratio of 70% or more and less than 90%)
Cc1nnc(NC(=O)c2ccc(C(F)(F)F)n3c(SC(C)C)nnc23)o1 [1-033]	5 (Herbicidal ratio of 90% or more (almost completely withered))	3 (Herbicidal ratio of 40% or more and less than 70%)	4 (Herbicidal ratio of 70% or more and less than 90%)	0 (Herbicidal ratio of 5% or less (almost no effect))	5 (Herbicidal ratio of 90% or more (almost completely withered))	4 (Herbicidal ratio of 70% or more and less than 90%)	2 (Herbicidal ratio of 20% or more and less than 40%)	1 (Herbicidal ratio of 5% or more and less than 20%)	0 (Herbicidal ratio of 5% or less (almost no effect))	3 (Herbicidal ratio of 40% or more and less than 70%)
CC[S+]([O-])c1nnc2c(C(=O)Nc3nnc(C)o3)ccc(C(F)(F)F)n12 (stereo not drawn) [1-034]	4 (Herbicidal ratio of 70% or more and less than 90%)	4 (Herbicidal ratio of 70% or more and less than 90%)	4 (Herbicidal ratio of 70% or more and less than 90%)	3 (Herbicidal ratio of 40% or more and less than 70%)	5 (Herbicidal ratio of 90% or more (almost completely withered))	4 (Herbicidal ratio of 70% or more and less than 90%)	1 (Herbicidal ratio of 5% or more and less than 20%)	2 (Herbicidal ratio of 20% or more and less than 40%)	5 (Herbicidal ratio of 90% or more (almost completely withered))	4 (Herbicidal ratio of 70% or more and less than 90%)
Cc1nnc(NC(=O)c2ccc(C(F)(F)F)n3c([S+]([O-])C(C)C)nnc23)o1 (stereo not drawn) [1-035]	5 (Herbicidal ratio of 90% or more (almost completely withered))	4 (Herbicidal ratio of 70% or more and less than 90%)	4 (Herbicidal ratio of 70% or more and less than 90%)	2 (Herbicidal ratio of 20% or more and less than 40%)	5 (Herbicidal ratio of 90% or more (almost completely withered))	3 (Herbicidal ratio of 40% or more and less than 70%)	3 (Herbicidal ratio of 40% or more and less than 70%)	2 (Herbicidal ratio of 20% or more and less than 40%)	4 (Herbicidal ratio of 70% or more and less than 90%)	4 (Herbicidal ratio of 70% or more and less than 90%)
Cc1nnc(NC(=O)c2ccc(C(F)(F)F)n3c(C[S+](C)[O-])nnc23)o1 (stereo not drawn) [1-036]	4 (Herbicidal ratio of 70% or more and less than 90%)	3 (Herbicidal ratio of 40% or more and less than 70%)	3 (Herbicidal ratio of 40% or more and less than 70%)	4 (Herbicidal ratio of 70% or more and less than 90%)	5 (Herbicidal ratio of 90% or more (almost completely withered))	5 (Herbicidal ratio of 90% or more (almost completely withered))	3 (Herbicidal ratio of 40% or more and less than 70%)	3 (Herbicidal ratio of 40% or more and less than 70%)	3 (Herbicidal ratio of 40% or more and less than 70%)	4 (Herbicidal ratio of 70% or more and less than 90%)
Cc1nnc(NC(=O)c2ccc(C(F)(F)F)n3c(CS(C)(=O)=O)nnc23)o1 [1-037]	0 (Herbicidal ratio of 5% or less (almost no effect))	3 (Herbicidal ratio of 40% or more and less than 70%)	2 (Herbicidal ratio of 20% or more and less than 40%)	0 (Herbicidal ratio of 5% or less (almost no effect))	5 (Herbicidal ratio of 90% or more (almost completely withered))	4 (Herbicidal ratio of 70% or more and less than 90%)	1 (Herbicidal ratio of 5% or more and less than 20%)	3 (Herbicidal ratio of 40% or more and less than 70%)	0 (Herbicidal ratio of 5% or less (almost no effect))	3 (Herbicidal ratio of 40% or more and less than 70%)
Cc1nnc(NC(=O)c2ccc(C(F)(F)F)n3c(C[S+]([O-])CC(F)(F)F)nnc23)o1 (stereo not drawn) [1-038]	2 (Herbicidal ratio of 20% or more and less than 40%)	1 (Herbicidal ratio of 5% or more and less than 20%)	2 (Herbicidal ratio of 20% or more and less than 40%)	0 (Herbicidal ratio of 5% or less (almost no effect))	5 (Herbicidal ratio of 90% or more (almost completely withered))	4 (Herbicidal ratio of 70% or more and less than 90%)	0 (Herbicidal ratio of 5% or less (almost no effect))	1 (Herbicidal ratio of 5% or more and less than 20%)	0 (Herbicidal ratio of 5% or less (almost no effect))	4 (Herbicidal ratio of 70% or more and less than 90%)
